# Laboratory results from patent US6822146B2, “Sulfonylurea-tolerant sunflower line M7” (priority 2000, dated 2004).
# Counter-ions that a name gives are not always drawn.
# Key:
# M5M11 = assay: Test B greenhouse phytotoxicity, M5M11; type: in vivo, sunflower; conditions: M5M11; 15 g a.i./ha post-emergence 4-leaf stage
# Protocol: (§1) A greenhouse experiment was conducted to evaluate the spectrum of tolerance of three homozygous resistant mutants to various herbicides inhibiting acetolactate synthase (ALS) as their mode of action. The inbred lines tested were the 5th generation self-pollinated maintainers, M5M7, M5M11 and M5M12, as well as the 4th generation male sterile back-crosses BC4-M5M7, BC4-M5M11 and BC4-M5M12. Treatments of formulated herbicides were applied post-emergence at the 4-leaf stage. Application rates of the test herbicides were chosen to coincide with the rates commonly used in the crops for which they are registered. The application rate of imazethapyr was chosen to match the rate recommended to control parasitic weeds in sunflowers by L. García-Torres et al., Weed Technology 1995, 9, 819-824. Wild type H89 inbred sunflower was not included in this test, because the many of the tested herbicides are known to be efficacious in controlling volunteer sunflower as a weed. Treatments were replicated twice. […] A rating of 0% phytotoxicity means no crop injury.
# BC4-M5M12 = assay: Test B greenhouse phytotoxicity, BC4-M5M12; type: in vivo, sunflower; conditions: BC4-M5M12; 15 g a.i./ha post-emergence 4-leaf stage
# Protocol: as §1
# M5M7 = assay: Test B greenhouse phytotoxicity, M5M7; type: in vivo, sunflower; conditions: M5M7; 15 g a.i./ha post-emergence 4-leaf stage
# Protocol: as §1
# M5M12 = assay: Test B greenhouse phytotoxicity, M5M12; type: in vivo, sunflower; conditions: M5M12; 15 g a.i./ha post-emergence 4-leaf stage
# Protocol: as §1
# Setaria viridis = assay: Test H weed control, field plots; type: in vivo; set-up: concentration or dose not given beside the values; conditions: 36 days after treatment; g a.i./ha: tribenuron-methyl 22.5, metsulfuron-methyl 6, ethametsulfuron-methyl 16, imazapyr isopropylamine salt 15, aclonifen 1200
# From the text: (§2) Field plots (2 m×5 m) were tilled to remove weed cover and then seeded in rows with the following weeds: Capsella bursa pastoris, Atriplex patula, Chenopodium album, Stellaria media, Mecurialis annua, Polygonum persicaria, Amaranthus retroflexus, Polygonum convolvulus, Polygonum aviculare, Viola arvensis, Matricaria inodora, Anagallis arvensis, Sinapis arvensis, Setaria viridis, Solanum nigrum and Echinochloa crusgalli. After 21 days from sowing, at which time the weeds had reached the 2- to 6-leaf stage, herbicide treatments were applied to the plots according to a complete randomized block design, with each herbicide treatment triply replicated. The herbicides were sprayed using standard flat fan nozzles moved perpendicular to the sown lines using water spray volumes of about 296 L/ha.
# (§3) Assessments of weed control were made by visual inspection 36 days after herbicide treatment. A visual rating system was used based on a percentage scale from 0 to 100% compared to an adjacent untreated control plot. On this scale 0 represents no visual differences relative to an untreated control and 100 represents complete control of the given weed species.
# Mercurialis annua = assay: Test H weed control, field plots; type: in vivo; set-up: concentration or dose not given beside the values; conditions: 36 days after treatment; g a.i./ha: tribenuron-methyl 22.5, metsulfuron-methyl 6, ethametsulfuron-methyl 16, imazapyr isopropylamine salt 15, aclonifen 1200
# From the text: as §2, §3
# Echinochloa crus-galli = assay: Test H weed control, field plots; type: in vivo; set-up: concentration or dose not given beside the values; conditions: 36 days after treatment; g a.i./ha: tribenuron-methyl 22.5, metsulfuron-methyl 6, ethametsulfuron-methyl 16, imazapyr isopropylamine salt 15, aclonifen 1200
# From the text: as §2, §3
# Sinapis arvensis = assay: Test H weed control, field plots; type: in vivo; set-up: concentration or dose not given beside the values; conditions: 36 days after treatment; g a.i./ha: tribenuron-methyl 22.5, metsulfuron-methyl 6, ethametsulfuron-methyl 16, imazapyr isopropylamine salt 15, aclonifen 1200
# From the text: as §2, §3
# Atriplex patula = assay: Test H weed control, field plots; type: in vivo; set-up: concentration or dose not given beside the values; conditions: 36 days after treatment; g a.i./ha: tribenuron-methyl 22.5, metsulfuron-methyl 6, ethametsulfuron-methyl 16, imazapyr isopropylamine salt 15, aclonifen 1200
# From the text: as §2, §3
# Polygonum convolvulus = assay: Test H weed control, field plots; type: in vivo; set-up: concentration or dose not given beside the values; conditions: 36 days after treatment; g a.i./ha: tribenuron-methyl 22.5, metsulfuron-methyl 6, ethametsulfuron-methyl 16, imazapyr isopropylamine salt 15, aclonifen 1200
# From the text: as §2, §3
# Viola arvensis = assay: Test H weed control, field plots; type: in vivo; set-up: concentration or dose not given beside the values; conditions: 36 days after treatment; g a.i./ha: tribenuron-methyl 22.5, metsulfuron-methyl 6, ethametsulfuron-methyl 16, imazapyr isopropylamine salt 15, aclonifen 1200
# From the text: as §2, §3
# Anagallis arvensis = assay: Test H weed control, field plots; type: in vivo; set-up: concentration or dose not given beside the values; conditions: 36 days after treatment; g a.i./ha: tribenuron-methyl 22.5, metsulfuron-methyl 6, ethametsulfuron-methyl 16, imazapyr isopropylamine salt 15, aclonifen 1200
# From the text: as §2, §3
# Matricaria inodora = assay: Test H weed control, field plots; type: in vivo; set-up: concentration or dose not given beside the values; conditions: 36 days after treatment; g a.i./ha: tribenuron-methyl 22.5, metsulfuron-methyl 6, ethametsulfuron-methyl 16, imazapyr isopropylamine salt 15, aclonifen 1200
# From the text: as §2, §3
# Polygonum aviculare = assay: Test H weed control, field plots; type: in vivo; set-up: concentration or dose not given beside the values; conditions: 36 days after treatment; g a.i./ha: tribenuron-methyl 22.5, metsulfuron-methyl 6, ethametsulfuron-methyl 16, imazapyr isopropylamine salt 15, aclonifen 1200
# From the text: as §2, §3
# Solanum nigrum = assay: Test H weed control, field plots; type: in vivo; set-up: concentration or dose not given beside the values; conditions: 36 days after treatment; g a.i./ha: tribenuron-methyl 22.5, metsulfuron-methyl 6, ethametsulfuron-methyl 16, imazapyr isopropylamine salt 15, aclonifen 1200
# From the text: as §2, §3
# Amaranthus retroflexus = assay: Test H weed control, field plots; type: in vivo; set-up: concentration or dose not given beside the values; conditions: 36 days after treatment; g a.i./ha: tribenuron-methyl 22.5, metsulfuron-methyl 6, ethametsulfuron-methyl 16, imazapyr isopropylamine salt 15, aclonifen 1200
# From the text: as §2, §3
# Capsella bursa pastoris = assay: Test H weed control, field plots; type: in vivo; set-up: concentration or dose not given beside the values; conditions: 36 days after treatment; g a.i./ha: tribenuron-methyl 22.5, metsulfuron-methyl 6, ethametsulfuron-methyl 16, imazapyr isopropylamine salt 15, aclonifen 1200
# From the text: as §2, §3
# Polygonum persicaria = assay: Test H weed control, field plots; type: in vivo; set-up: concentration or dose not given beside the values; conditions: 36 days after treatment; g a.i./ha: tribenuron-methyl 22.5, metsulfuron-methyl 6, ethametsulfuron-methyl 16, imazapyr isopropylamine salt 15, aclonifen 1200
# From the text: as §2, §3
# BC4-M5M11 = assay: Test B greenhouse phytotoxicity, BC4-M5M11; type: in vivo, sunflower; conditions: BC4-M5M11; 15 g a.i./ha post-emergence 4-leaf stage
# Protocol: as §1
# BC4-M5M7 = assay: Test B greenhouse phytotoxicity, BC4-M5M7; type: in vivo, sunflower; conditions: BC4-M5M7; 15 g a.i./ha post-emergence 4-leaf stage
# Protocol: as §1
# Stellaria media = assay: Test H weed control, field plots; type: in vivo; conditions: 36 days after treatment; g a.i./ha: tribenuron-methyl 22.5, metsulfuron-methyl 6, ethametsulfuron-methyl 16, imazapyr isopropylamine salt 15, aclonifen 1200
# From the text: as §2, §3
# Chenopodium album = assay: Test H weed control, field plots; type: in vivo; conditions: 36 days after treatment; g a.i./ha: tribenuron-methyl 22.5, metsulfuron-methyl 6, ethametsulfuron-methyl 16, imazapyr isopropylamine salt 15, aclonifen 1200
# From the text: as §2, §3
# [1] = tested on: homozygous progeny of the three mutant sources; type: in vivo, sunflower; conditions: Test B application rates, post-emergence
# Protocol: as §1
# Orobanche cumana = assay: Test E control of Orobanche cumana in resistant sunflower hybrid; type: in vivo
# Protocol: The effect of the various treatments was evaluated 35 days after sowing. The sunflower roots were cleaned by washing in water, and the presence of Orobanche nodules was determined visually and by weighing root wet mass in comparison to check plants free of Orobanche infestation. […] The nodules caused by Orobanche increased root weight, and a correlation (r=0.7) was found between visual scores and weight measurements. Thus the weighing technique could be used to corroborate visual efficacy scorings. Orobanche emergence was also scored but found to be less useful to evaluate treatment efficiency at the evaluation timing of this test.
# (§4) Based on the results from Test D, a modified protocol was developed to include three timings of post-emergence treatment. The hybrid BC4-M5M12 (female parent)×PHA155 restorer line (male parent) described in Test C was used in this test. Various herbicide programs were tested using three replications. […] Seed coatings of these formulated herbicides were applied to 6 kg of seeds in such amount that considering the distribution of the coated seeds in each pot, the herbicide active ingredient (a.i.) application rates per hectare were as indicated.
# (§5) The treatments were applied similar to the methods described for Test D. Pre-emergence applications were broadcast only, not soil incorporated. For pre-emergence application, the pots were sprayed using the high rates of the herbicides two days after sowing the sunflower seeds. Post-emergence treatments were applied at the 4-6 leaf stage of sunflower (corresponding to early stage of Orobanche attachment; identified as “T1”), the 6-8 leaf stage of sunflower (corresponding to the mid stage of Orobanche attachment; nodules <5 mm diameter; identified as “T2”) and 8-12 leaf stage of sunflower (corresponding to late stage of Orobanche attachment; identified as “T3”). The mid-stage applications included the high as well as low application rates of each herbicide.
# (§6) For comparison were also included in this test other acetolactate synthase-inhibiting herbicides reported in the literature as giving good weed control of Orobanche (L. García-Torres et al., Weed Research 1994, 34, 395-402; L. García-Torres et al., Weed Technology 1995, 9, 819-824; J. Hershenhorn et al., Weed Technology 1998, 12, 108-114).
# [2] = tested on: Orobanche cumana (Race F); assay: Test F sequential application to control Orobanche cumana; type: in vivo; conditions: post-emergence T3 15 g a.i./ha
# Protocol: A greenhouse experiment was performed to identify the best sequential program compared to straight application of tribenuron-methyl or metsulfuron-methyl for control of Orobanche cumana (Race F). The dose range for optimum efficacy was also studied. Both herbicides were used as formulated compositions. […] BC4-M5M7×PHA155 is referred to below as “Hybrid 7”, and BC4-M5M12×PHA155 is referred to below as “Hybrid 12”.
# Seed coating treatment was performed as described for Test D. Post-emergence treatments were applied at the 2-4 leaf stage of sunflower (corresponding to early stage of Orobanche attachment; identified as “T1”), the 6 leaf stage of sunflower (corresponding to the mid stage of Orobanche attachment; nodules <5 mm diameter; identified as “T2”) and 8 leaf stage of sunflower (corresponding to late stage of Orobanche attachment; identified as “T3”).
# The efficacy was evaluated visually as described for Test D except that the efficacy was assessed ten days later than for Tests D and E. The later evaluation allowed observing any reduction of efficacy due to late Orobanche emergence or re-growth of treated nodules. Efficacy in controlling Orobanche attached to roots was evidenced by nodules comprising black necrotic tissues with no apparent active meristematic area. These nodules could be easily crushed between fingers.
# [3] = tested on: BC4-M5M12 × PHA155 hybrid; assay: Test E injury to sunflower hybrid; type: in vivo; conditions: in vivo
# Protocol: as §4, §5, §6
Structure (SMILES),"weed control, visual rating: Setaria viridis (Setaria viridis) [%]","weed control, visual rating: Mercurialis annua (Mercurialis annua) [%]","weed control, visual rating: Echinochloa crus-galli (Echinochloa crus-galli) [%]","weed control, visual rating: Sinapis arvensis (Sinapis arvensis) [%]","weed control, visual rating: Atriplex patula (Atriplex patula) [%]","weed control, visual rating: Polygonum convolvulus (Polygonum convolvulus) [%]","weed control, visual rating: Viola arvensis (Viola arvensis) [%]","weed control, visual rating: Anagallis arvensis (Anagallis arvensis) [%]","weed control, visual rating: Matricaria inodora (Matricaria inodora) [%]","weed control, visual rating: Polygonum aviculare (Polygonum aviculare) [%]","weed control, visual rating: Solanum nigrum (Solanum nigrum) [%]","weed control, visual rating: Amaranthus retroflexus (Amaranthus retroflexus) [%]","weed control, visual rating: Capsella bursa pastoris (Capsella bursa pastoris) [%]","weed control, visual rating: Polygonum persicaria (Polygonum persicaria) [%]","weed control, visual rating: Stellaria media (Stellaria media) [%]","weed control, visual rating: Chenopodium album (Chenopodium album) [%]",other results
"CCOc1nc(NC)nc(NC(=O)NS(=O)(=O)c2ccccc2C(=O)OC)n1 [Ethametsulfuron-methyl, ethametsulfuron-methyl]",0,0,33,97,0,0,0,100,67,0,70,82,100,0,79,0,Maximum Phytotoxicity (M5M11): 0%; Maximum Phytotoxicity (BC4-M5M12): 0%; Maximum Phytotoxicity (M5M7): 10%; Maximum Phytotoxicity (M5M12): 0%; Maximum Phytotoxicity (BC4-M5M11): 10%; Maximum Phytotoxicity (BC4-M5M7): 5%; tolerance of the mutants [1]: extremely resistant
"CC(C)C1(C)N=C(c2ncccc2C(=O)O)NC1=O (stereo not drawn) [Imazapyr, isopropylamine salt, Imazapyr]",93,47,27,100,85,94,0,100,43,0,100,84,100,100,100,87,"relative efficacy in controlling Orobanche (Orobanche cumana; Test E rates, metsulfuron-methyl compared with tribenuron-methyl): less efficacious in controlling Orobanche; Control (Orobanche cumana; post-emergence 15 g a.i./ha at T3): 72%; % Control in Hybrid 7 [2]: 97%; % Control in Hybrid 12 [2]: 97%; Injury [3]: 0%; sunflower phytotoxicity [3]: transitory phytotoxicity symptoms"
